Reference: ChEMBL document CHEMBL1641546, “The discovery and structure-activity relationships leading to CE-156811, a difluorophenyl cyclopropyl fluoroether: a novel potent antibacterial analog derived from hygromycin A” (Bioorg Med Chem Lett, 2011)
≈ marks a conversion by molar mass, not a printed value. Calls of active or inactive are those of the source. The rule behind the calls is not given here.

Key:
[1] = system: Streptococcus pneumoniae; assay: Antibacterial activity against Streptococcus pneumoniae 1016; type: functional
[2] = system: Staphylococcus aureus; assay: Antibacterial activity against Staphylococcus aureus 1095; type: functional
[3] = system: Enterococcus faecium; assay: Antibacterial activity against Enterococcus faecium 1022; type: functional
[4] = system: Enterococcus faecalis; assay: Antibacterial activity against Enterococcus faecalis 1085; type: functional
[5] = system: Staphylococcus aureus; assay: Antibacterial activity against methicillin-sensitive Staphylococcus aureus; type: functional
[6] = system: Streptococcus pneumoniae; assay: Antibacterial activity against Streptococcus pneumoniae infected in po dosed in vivo lung model administered bid for 3 day; type: functional; conditions: 72 h, read-out: PD50
[7] = system: Enterococcus faecium; assay: Antibacterial activity against multidrug-resistant Enterococcus faecium; type: functional
[8] = system: Streptococcus pneumoniae; assay: Antibacterial activity against penicillin-resistant Streptococcus pneumoniae; type: functional
[9] = system: Enterococcus faecium; assay: Antibacterial activity against Enterococcus faecium infected in po dosed in vivo acute model administered bid for 1 day; type: functional; conditions: 24 h, read-out: PD50
[10] = system: Streptococcus pyogenes; assay: Antibacterial activity against Streptococcus pyogenes infected in po dosed in vivo acute model administered bid for 1 day; type: functional; conditions: 24 h, read-out: PD50
[11] = system: Staphylococcus aureus; assay: Antibacterial activity against methicillin-resistant Staphylococcus aureus; type: functional
[12] = system: Enterococcus faecalis; assay: Antibacterial activity against multidrug-resistant Enterococcus faecalis; type: functional
[13] = system: Enterococcus faecalis; assay: Antibacterial activity against Enterococcus faecalis infected in po dosed in vivo acute model administered bid for 1 day; type: functional; conditions: 24 h, read-out: PD50
[14] = system: Staphylococcus aureus; assay: Antibacterial activity against glycopeptide-intermediate Staphylococcus aureus; type: functional
[15] = system: Staphylococcus epidermidis; assay: Antibacterial activity against methicillin-sensitive Staphylococcus epidermidis; type: functional
[16] = system: Enterococcus faecium; assay: Antibacterial activity against Enterococcus faecium infected in sc dosed in vivo acute model administered bid for 1 day; type: functional; conditions: 24 h, read-out: PD50
[17] = Clearance in dog; type: ADME, organism-based, Canis lupus familiaris; conditions: in vivo
[18] = Half life in dog; type: ADME, organism-based, Canis lupus familiaris; conditions: in vivo
[19] = system: Streptococcus pyogenes; assay: Antibacterial activity against Streptococcus pyogenes infected in sc dosed in vivo acute model administered bid for 1 day; type: functional; conditions: 24 h, read-out: PD50
[20] = system: Staphylococcus aureus; assay: Antibacterial activity against Staphylococcus aureus infected in sc dosed in vivo acute model administered bid for 1 day; type: functional; conditions: 24 h, read-out: PD50
[21] = Half life in monkey; type: ADME, organism-based, Macaca mulatta; conditions: rhesus monkey, in vivo
[22] = Clearance in mouse; type: ADME, organism-based; conditions: in vivo
[23] = Half life in mouse; type: ADME, organism-based; conditions: in vivo
[24] = Volume of distribution at steady state in dog; type: ADME, organism-based, Canis lupus familiaris; conditions: in vivo, read-out: Vdss
[25] = Half life in rat; type: ADME, organism-based; conditions: in vivo
[26] = Clearance in monkey; type: ADME, organism-based, Macaca mulatta; conditions: rhesus monkey, in vivo
[27] = Clearance in rat; type: ADME, organism-based; conditions: in vivo
[28] = Oral bioavailability in rat at 10 mg/kg, po and 5 mg/kg, iv; type: ADME, organism-based; conditions: in vivo
[29] = Volume of distribution at steady state in monkey; type: ADME, organism-based, Macaca mulatta; conditions: rhesus monkey, in vivo; read-out: Vdss
[30] = Oral bioavailability in mouse; type: ADME, organism-based; conditions: in vivo
[31] = system: Streptococcus pneumoniae; assay: Antibacterial activity against Streptococcus pneumoniae infected in sc dosed in vivo lung model administered bid for 3 day; type: functional; conditions: 72 h, read-out: PD50
[32] = Volume of distribution at steady state in rat; type: ADME, organism-based; conditions: in vivo, read-out: Vdss
[33] = system: Enterococcus faecalis; assay: Antibacterial activity against Enterococcus faecalis infected in sc dosed in vivo acute model administered bid for 1 day; type: functional; conditions: 24 h, read-out: PD50
[34] = Volume of distribution at steady state in mouse; type: ADME, organism-based; conditions: in vivo, read-out: Vdss

`C/C(=C\c1cc(F)c(OCCF)cc1F)C(=O)N[C@@H]1[C@H](O)[C@@H](O)[C@H]2OCO[C@H]2[C@@H]1O` gave an MIC [1] of 6.2 µg/mL (≈ 14.3 µM), an MIC [2] of 50 µg/mL (≈ 115 µM) and an MIC [3] of 25 µg/mL (≈ 57.7 µM). For the same compound, the MIC [4] was 25 µg/mL (≈ 57.7 µM).

With `C/C(=C\c1cc(F)c(OCC2(F)CCC2)cc1F)C(=O)N[C@@H]1[C@H](O)[C@@H](O)[C@H]2OCO[C@H]2[C@@H]1O` the MIC [1] was 3.1 µg/mL (≈ 6.55 µM), the MIC [2] was 6.2 µg/mL (≈ 13.1 µM) and the MIC [3] was 6.2 µg/mL (≈ 13.1 µM). The MIC [4] was 6.2 µg/mL (≈ 13.1 µM).

`CC(=O)NC[C@H]1CN(c2ccc(N3CCOCC3)c(F)c2)C(=O)O1` [LINEZOLID] gave an MIC90 [5] of 2 µg/mL (≈ 5.93 µM), an ED50 [6] of 10 mg/kg and an MIC90 [7] of 2 µg/mL (≈ 5.93 µM). It also gave an MIC90 [8] of 1 µg/mL (≈ 2.96 µM), an ED50 [9] of 4 mg/kg and an ED50 [10] of 3 mg/kg. For the same compound, the MIC90 [11] was 1 µg/mL (≈ 2.96 µM), the MIC90 [12] was 1 µg/mL (≈ 2.96 µM) and the ED50 [13] was 3 mg/kg. The MIC90 [14] was 0.5 µg/mL (≈ 1.48 µM) and the MIC90 [15] was 1 µg/mL (≈ 2.96 µM).

With `C/C(=C\c1cc(F)c(OCC2CCC2)cc1F)C(=O)N[C@@H]1[C@H](O)[C@@H](O)[C@H]2OCO[C@H]2[C@@H]1O` the MIC [1] was 6.2 µg/mL (≈ 13.6 µM), the MIC [2] was 12.5 µg/mL (≈ 27.4 µM) and the MIC [3] was 6.2 µg/mL (≈ 13.6 µM). It also gave an MIC [4] of 12.5 µg/mL (≈ 27.4 µM).

Compound `C/C(=C\c1cc(F)c(OCCC(F)F)cc1F)C(=O)N[C@@H]1[C@H](O)[C@@H](O)[C@H]2OCO[C@H]2[C@@H]1O` has an MIC [1] of 1.56 µg/mL (≈ 3.35 µM), an MIC [2] of 12.5 µg/mL (≈ 26.9 µM) and an MIC [3] of 3.13 µg/mL (≈ 6.73 µM). For the same compound, the MIC [4] was 12.5 µg/mL (≈ 26.9 µM).

Compound `C/C(=C\c1cc(F)c(OCC(C)F)cc1F)C(=O)N[C@@H]1[C@H](O)[C@@H](O)[C@H]2OCO[C@H]2[C@@H]1O` (some centres not stated) has an MIC [1] of 60.2 µg/mL (≈ 135 µM), an MIC [2] of 6.25 µg/mL (≈ 14 µM) and an MIC [3] of 3.13 µg/mL (≈ 7 µM). The MIC [4] was 60.2 µg/mL (≈ 135 µM).

`C/C(=C\c1cc(F)c(OC[C@H](F)C2CC2)cc1F)C(=O)N[C@@H]1[C@H](O)[C@@H](O)[C@H]2OCO[C@H]2[C@@H]1O` gave an ED50 [16] of 8 mg/kg, an MIC90 [5] of 1 µg/mL (≈ 2.11 µM) and a clearance [17] of 5.4 mL/min/kg. It also gave a half-life [18] of 1.9 h, an ED50 [19] of 3 mg/kg and an MIC90 [7] of 1 µg/mL (≈ 2.11 µM). It also gave an MIC90 [8] of 0.5 µg/mL (≈ 1.06 µM), an ED50 [20] of 4 mg/kg and a half-life [21] of 1 h. For the same compound, the clearance [22] was 12.1 mL/min/kg, the half-life [23] was 1.4 h and the Vd [24] was 0.71 L/kg. For the same compound, the half-life [25] was 1.3 h, the MIC90 [11] was 0.5 µg/mL (≈ 1.06 µM) and the clearance [26] was 8.6 mL/min/kg. It also gave an MIC90 [12] of 0.5 µg/mL (≈ 1.06 µM), a clearance [27] of 10.5 mL/min/kg and a bioavailability [28] of 56%. For the same compound, the Vd [29] was 0.59 L/kg, the bioavailability [30] was 55% and the ED50 [31] was 23 mg/kg. The MIC90 [14] was 0.125 µg/mL (≈ 0.264 µM), the Vd [32] was 0.5 L/kg and the ED50 [33] was 10 mg/kg. It also gave a Vd [34] of 0.52 L/kg and an MIC90 [15] of 0.25 µg/mL (≈ 0.528 µM).

In the case of `CCOc1cc(F)c(/C=C(\C)C(=O)N[C@@H]2[C@H](O)[C@@H](O)[C@H]3OCO[C@H]3[C@@H]2O)cc1F`, the MIC [1] was “inactive”, the MIC [2] was 100 µg/mL (≈ 241 µM) and the MIC [3] was 12.5 µg/mL (≈ 30.1 µM). It also gave an MIC [4] of 25 µg/mL (≈ 60.2 µM).

In the case of `C/C(=C\c1cc(F)c(OCCO)cc1F)C(=O)N[C@@H]1[C@H](O)[C@@H](O)[C@H]2OCO[C@H]2[C@@H]1O`, the MIC [1] was “inactive”, the MIC [2] was 100 µg/mL (≈ 232 µM) and the MIC [3] was over 100 µg/mL. The MIC [4] was over 100 µg/mL.

`C/C(=C\c1cc(F)c(OCCC(C)(C)F)cc1F)C(=O)N[C@@H]1[C@H](O)[C@@H](O)[C@H]2OCO[C@H]2[C@@H]1O` gave an MIC [1] of 25 µg/mL (≈ 52.6 µM), an MIC [2] of 100 µg/mL (≈ 210 µM) and an MIC [3] of 50 µg/mL (≈ 105 µM). For the same compound, the MIC [4] was 100 µg/mL (≈ 210 µM).

`C/C(=C\c1cc(F)c(OCCCF)cc1F)C(=O)N[C@@H]1[C@H](O)[C@@H](O)[C@H]2OCO[C@H]2[C@@H]1O` showed an MIC [1] of 2 µg/mL (≈ 4.47 µM), an MIC [2] of 1.56 µg/mL (≈ 3.49 µM) and an MIC [3] of 0.78 µg/mL (≈ 1.74 µM). It also gave an MIC [4] of 1.56 µg/mL (≈ 3.49 µM).

Compound `C/C(=C\c1cc(F)c(OCC(F)C2CC2)cc1F)C(=O)N[C@@H]1[C@H](O)[C@@H](O)[C@H]2OCO[C@H]2[C@@H]1O` (some centres not stated) has an MIC [1] of 0.4 µg/mL (≈ 0.845 µM), an MIC [2] of 1.56 µg/mL (≈ 3.3 µM) and an MIC [3] of 1.6 µg/mL (≈ 3.38 µM). For the same compound, the MIC [4] was 1.6 µg/mL (≈ 3.38 µM).
